Measured values taken from patent US20150105281A1, “Method for the Selection of Serum Biomarkers of Epigenetic Alterations, Particularly of Global Hypomethylation and Their Uses” (Universite Paris Descartes, priority 2012, published 2015).

Key:
Type in all cases: cell-based, human
A549 = test: Cell viability (WST-1) with 5-aza-dC at increasing doses
Excerpt: (§1) To further determine the impact of global demethylation on the expression of hCGβ type II and pro-EPIL, we used 5-aza-2′ deoxycytidine (5-aza-dC), a strong inducer of DNA de-methylation and measured the levels of hCGβ type II and pro-EPIL in the supernatants of 10 cancer cell lines of various histological origin, treated at two different doses of 5-aza-dC. On the curve of viability of each cell line treated with 5-aza-dC at increasing doses, the two selected doses that have been selected for studying the effect of global hypomethylation by 5-aza-dC on the production of hCGβ type II and pro-EPIL were the doses corresponding to the 5-aza-dC concentrations at the inflexion point and at the 50% inhibition of cell viability (Inhibition growth Concentration 50% or IC 50), respectively (FIG. 3 and Table 2).
(§2) Briefly, 10,000 cells were plated in 96-well plates in 100 μl medium. After one day, dilution range of 5-aza-dC from 1,000 μM to 0.06 μM were added. After 96 h incubation time, 10 μl of WST-1 were added and optical density (O.D) were measured at 450 nm (FIG. 3 and Table 2).

JAR = test: as above; settings: 96 h
Excerpt: as §1, §2

TC320X6 = test: as above; settings: 96 h
Excerpt: as §1, §2

CLRB018P = test: as above; settings: 96 h
Excerpt: as §1, §2

HT1376 = test: as above
Excerpt: as §1, §2

BC173 = test: as above; settings: 96 h
Excerpt: as §1, §2

JEG = test: as above; settings: 96 h
Excerpt: as §1, §2

SHP77 = test: as above
Excerpt: as §1, §2

LCF09 = test: as above; settings: 96 h
Excerpt: as §1, §2

OBR = test: as above; settings: 96 h
Excerpt: as §1, §2

pro-EPIL = test: Pro-EPIL in supernatants of cancer cell lines after induction of DNA demethylation (ELISA); settings: 10 cancer cell lines, 72 h at dose A or dose B, supernatant, vs cells not exposed (FIG. 4A)
Excerpt: as §1
(§3) Experiments were performed as previously described. Briefly, in 75 cm^2 size cell culture flaks, cell lines were grew up to more than 50% confluence before treating them for 72 h with 5-aza-dC at either the doses A corresponding at the Inflection Points, or the doses B corresponding to IC50. […] After trypsinisation, cells were counted in malassez chamber using trypan blue. […] Then, the pro-EPIL and hCG B type II concentrations were determined by an ELISA immunoassay and an automated KRYPTOR immunoassay, respectively (Table 2, FIG. 4A, FIG. 4B).

hCGβ type II = hCGβ type II in supernatants of cancer cell lines after induction of DNA demethylation (KRYPTOR immunoassay); settings: 10 cancer cell lines, 72 h at dose A or dose B, supernatant, vs cells not exposed (FIG. 4B)
Excerpt: as §1, §3

[1] = Homo sapiens, read-out: Dose B (5-aza-dC concentration at the 50% inhibition of cell viability, IC 50)

## Nc1ncn([C@H]2C[C@H](O)[C@@H](CO)O2)c(=O)n1 [5-aza-dC, 5-aza-2′ deoxycytidine]
A549; A549, lung, 96 h, WST-1
  Dose A (5-aza-dC concentration at the inflexion point of the viability curve): 12.5 µM
A549; Homo sapiens, A549, 96 h, read-out: Dose B (5-aza-dC concentration at the 50% inhibition of cell viability, IC 50)
  IC50: 50 µM
JAR; [1]
  IC50: 17.7 µM
JAR; JAR, placenta, WST-1
  Dose A (5-aza-dC concentration at the inflexion point of the viability curve): 2 µM
TC320X6; [1]
  IC50: 77 µM
TC320X6; TC320X6, colon, WST-1
  Dose A (5-aza-dC concentration at the inflexion point of the viability curve): 4 µM
CLRB018P; CLRB018P, colon, WST-1
  Dose A (5-aza-dC concentration at the inflexion point of the viability curve): 15.6 µM
CLRB018P; [1]
  IC50: 186 µM
HT1376; HT1376, bladder, 96 h, WST-1
  Dose A (5-aza-dC concentration at the inflexion point of the viability curve): 1.6 µM
HT1376; Homo sapiens, HT-1376, 96 h, read-out: Dose B (5-aza-dC concentration at the 50% inhibition of cell viability, IC 50)
  IC50: 6.3 µM
BC173; BC173, breast, WST-1
  Dose A (5-aza-dC concentration at the inflexion point of the viability curve): 1.95 µM
BC173; [1]
  IC50: 117 µM
JEG; [1]
  IC50: 5 µM
JEG; JEG, placenta, WST-1
  Dose A (5-aza-dC concentration at the inflexion point of the viability curve): 2.6 µM
SHP77; Homo sapiens, SHP77, 96 h, read-out: Dose B (5-aza-dC concentration at the 50% inhibition of cell viability, IC 50)
  IC50: 27.5 µM
SHP77; SHP77, lung, 96 h, WST-1
  Dose A (5-aza-dC concentration at the inflexion point of the viability curve): 8 µM
LCF09; [1]
  IC50: 25 µM
LCF09; LCF09, lung, WST-1
  Dose A (5-aza-dC concentration at the inflexion point of the viability curve): 5 µM
OBR; [1]
  IC50: 20 µM
OBR; OBR, bladder, WST-1
  Dose A (5-aza-dC concentration at the inflexion point of the viability curve): 6.5 µM
pro-EPIL
  Effect on the production of pro-EPIL: induced consistently an increase
hCGβ type II
  Cell lines with an increase in the production of hCGβ type II: 7 out of 10
